Results: article PMC10403075, “Short hydrocarbon stapled ApoC2-mimetic peptides activate lipoprotein lipase and lower plasma triglycerides in mice” (Frontiers in Cardiovascular Medicine, 2023)
Each block holds one compound with its values, some of them ahead of it. Positions of bridges follow the written chain, without caps; N, C: chain ends. Non-standard residues stand in square brackets, D forms with d. Residues, ends and D or L forms follow the SMILES beside them. R8 = C=CCCCCCC[C@@](C)(N)C(=O)O; S5 = C=CCCC[C@](C)(N)C(=O)O

Assays:
LPL from bovine milk = molecular target: T1, LPL from bovine milk (Bos taurus, UniProt P11151); assay: In vitro LPL activity assay (NEFA generation, ApoC2-deficient plasma substrate); assay type: biochemical; conditions: 0-2 µM peptide, ApoC2-deficient plasma substrate, NEFA read-out, triplicates; for EC50: 0.83 nM bovine milk LPL, 30 min on ice then 37°C 1 h, read-out: EC50 for stimulating lipolysis (LPL activation); for in vitro LPL activation, dose response (result in words): bovine milk LPL, 37°C 1 h
T1 construct: LPL from bovine milk (Sigma-Aldrich); purchased Sigma-Aldrich; host or cells: bovine milk (natural source)
T1 sequence (P11151 29-478): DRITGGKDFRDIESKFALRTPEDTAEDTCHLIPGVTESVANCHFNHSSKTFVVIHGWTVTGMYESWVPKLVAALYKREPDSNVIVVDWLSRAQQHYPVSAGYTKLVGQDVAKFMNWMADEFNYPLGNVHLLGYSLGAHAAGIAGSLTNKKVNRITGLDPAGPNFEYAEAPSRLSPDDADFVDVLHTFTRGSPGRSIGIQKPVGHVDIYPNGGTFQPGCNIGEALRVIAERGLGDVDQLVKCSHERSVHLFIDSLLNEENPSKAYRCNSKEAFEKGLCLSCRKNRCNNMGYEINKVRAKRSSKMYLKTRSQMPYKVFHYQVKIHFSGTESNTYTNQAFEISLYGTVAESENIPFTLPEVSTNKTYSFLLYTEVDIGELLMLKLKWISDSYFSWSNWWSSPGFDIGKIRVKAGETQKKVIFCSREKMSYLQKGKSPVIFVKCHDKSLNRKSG
Procedure: LPL activity was determined by measuring the generation of non-esterified fatty acids (NEFA). In a 96-well plate, 0–2 µM of an ApoC2 mimetic peptide, 0.83 nM of LPL from bovine milk (Sigma-Aldrich), ApoC2-deficient ethylenediaminetetraacetic acid (EDTA)-plasma (diluted with PBS to a final TG concentration of 0.67 mg/dl), 2 IU/ml heparin, 0.2% fatty acids free bovine serum albumin (BSA) (ICN Biomedicals), and PBS (Life Technologies) were combined in a final reaction volume of 50 μl. The reaction mixture was pre-incubated on ice for 30 min and incubated at 37°C for 1 h. NEFA were measured with a coupled enzyme reaction (Wako Diagnostics) in a Synergy H1 microplate reader (BioTek, USA).

[1] = DMPC vesicle clearance (solubilization) assay; assay type: physicochemical; conditions: peptide 0-100 µM in 20 mM TRIS pH 8.2, DMPC vesicles 0.5 mg/ml in PBS, absorbance 660 nm, 1 h, 24°C
Procedure: Dimyristoyl Phosphatidyl Choline (DMPC) (Avanti 850345C) vesicles were made by sonication (0.5 mg/ml) in phosphate buffer saline (PBS). Peptides (0, 25, 50 and 100 µM) in 20 mM TRIS, pH 8.2 were added to DMPC vesicles (0.5 mg/ml) prepared by sonication in PBS and turbidity was monitored in a Victor^3 plate reader (Perkin Elmer, USA) by monitoring absorbance at 660 nm for 1 h at 24°C. Samples were shaken at 300 RPM. Absorbance over time was plotted and areas-under-the-curve (AOC) were calculated. PBS was used as a negative control sample and Triton X-100 at a final concentration of 1% (w/v) was used as positive control.

[2] = Circular dichroism spectroscopy; assay type: physicochemical; conditions: CD 190-250 nm
Procedure: Circular dichroism (CD) spectra were acquired on a Chirascan Q100 spectrometer. CD spectra were recorded in the190–250 nm range, using a 0.1 cm quartz cell and analyzed with Bettsele® on-line software ([24]).

trypsin = assay: Peptide proteolysis resistance, trypsin; assay type: in vitro ADME; conditions: peptide 0.1 mM, 10 ug/ml trypsin, 20 mM ammonium bicarbonate pH 8.2, 37°C, MALDI-TOF with internal standards, first time point 3 h, triplicates
Procedure: (§1) Peptides (0.1 mM) were incubated at 37°C in 20 mM ammonium bicarbonate buffer at pH 8.2, with 10 ug/ml trypsin or […] Proteinase K. To test resistance to Pepsin, peptides (0.1 mM) were incubated with Pepsin (3 mg/ml) in 0.02M acetate buffer (pH 2). The amount of intact peptide was monitored over time by Matrix-assisted laser desorption/ionization time-of-flight (MALDI-TOF) on a Bruker Autoflex III instrument (Bruker Optics, Inc., USA). Internal standards (Bombesin, ACTH (1–17), ACTH (18–39) and Insulin) were used to quantify the relative amount of peptide in each sample.

Proteinase K = Proteinase K (Parengyodontium album, UniProt P06873); assay type: in vitro ADME; conditions: peptide 0.1 mM, 16 ug/kg Proteinase K, 20 mM ammonium bicarbonate pH 8.2, 37°C, MALDI-TOF with internal standards, first time point 3 h, triplicates
Sequence of Proteinase K (P06873 106-384): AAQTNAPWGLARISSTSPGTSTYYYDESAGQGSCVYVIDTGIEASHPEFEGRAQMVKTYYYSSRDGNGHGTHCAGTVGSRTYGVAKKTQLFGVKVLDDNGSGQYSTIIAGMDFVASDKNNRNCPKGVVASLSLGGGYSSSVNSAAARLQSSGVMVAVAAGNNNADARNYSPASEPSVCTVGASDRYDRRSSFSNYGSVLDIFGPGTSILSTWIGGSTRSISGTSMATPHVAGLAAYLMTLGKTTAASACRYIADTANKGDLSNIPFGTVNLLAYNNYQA
Procedure: as §1

Pepsin = assay: Peptide proteolysis resistance, pepsin; assay type: in vitro ADME; conditions: peptide 0.1 mM, pepsin 3 mg/ml, 0.02M acetate buffer pH 2, 1 h, MALDI-TOF with internal standards, triplicates
Procedure: as §1

Apoc2^h/h mice = assay: Plasma lipids in ApoC2-hypomorphic mice after peptide injection; assay type: in vivo, mouse; conditions: single IP 1 umole/kg, n = 5
Procedure: ApoC2–hypomorphic mice (Apoc2^h/h) ([25]) and human ApoC3-transgenic (hAPOC3-tg) mice ([26]) were fed a regular rodent chow diet (NIH-31 chow diet: Zeigler Brothers Inc.). Peptides dissolved in 20 mM TRIS (pH 8.2) or vehicle control were injected intraperitoneally or intravenously at the indicated concentrations. Blood samples were collected from the retro-orbital sinus with a heparinized capillary tube. Whole blood was centrifuged at 1,000 g for 20 min at 4°C to obtain plasma. All animal procedures were approved by the National Heart, Lung, and Blood Institute Animal Care and Use Committee (protocol #H-0050).

EC50 (LPL from bovine milk): 25 to 33 nM
Structure (SMILES): CC[C@H](C)[C@@H]1NC(=O)CNC(=O)[C@H]([C@@H](C)O)NC(=O)[C@H](Cc2ccc(O)cc2)NC(=O)[C@H]([C@@H](C)O)NC(=O)[C@](C)(NC(=O)[C@H](CCSC)NC(=O)[C@H](C)NC(=O)[C@H](C)NC(=O)[C@@H](NC(=O)[C@H](CO)NC(=O)[C@H](CCCCN)NC(=O)[C@H](CO)NC(=O)[C@H](Cc2ccc(O)cc2)NC(=O)[C@H](CC(C)C)NC(=O)[C@H](CC(=O)O)NC(=O)[C@H](CCCNC(=N)N)NC(=O)[C@H](CC(C)C)NC(=O)[C@H](CCCCN)NC(=O)[C@@H](N)CCC(=O)O)[C@@H](C)O)CCCCCCC=CCCC[C@@](C)(C(=O)N[C@@H](CC(=O)O)C(=O)N[C@@H](CCC(N)=O)C(=O)N[C@H](C(=O)N[C@@H](CC(C)C)C(=O)N[C@@H](CO)C(=O)N[C@H](C(=O)N[C@@H](CC(C)C)C(=O)N[C@@H](CCCCN)C(=O)NCC(=O)N[C@@H](CCC(=O)O)C(=O)N[C@@H](CCC(=O)O)C(=O)O)C(C)C)C(C)C)NC(=O)[C@H](Cc2ccccc2)NC1=O [P5] (H-EKLRDLYSKSTAAM[R8]TYTGIF[S5]DQVLSVLKGEE-OH; staple 15-22)

DMPC vesicle solubilization [1]: inactive
Structure (SMILES): CC[C@H](C)[C@H](NC(=O)CNC(=O)[C@@H](NC(=O)[C@H](Cc1ccc(O)cc1)NC(=O)[C@@H](NC(=O)[C@H](CO)NC(=O)[C@H](CCSC)NC(=O)[C@H](C)N)[C@@H](C)O)[C@@H](C)O)C(=O)N[C@@H](Cc1ccccc1)C(=O)N[C@H](C(=O)N[C@@H](CC(=O)O)C(=O)N[C@@H](CCC(N)=O)C(=O)N[C@H](C(=O)N[C@@H](CC(C)C)C(=O)N[C@@H](CO)C(=O)N[C@H](C(=O)N[C@@H](CC(C)C)C(=O)N[C@@H](CCCCN)C(=O)NCC(=O)N[C@@H](CCC(=O)O)C(=O)N[C@@H](CCC(=O)O)C(=O)O)C(C)C)C(C)C)[C@@H](C)O [P8, reference compound] (H-AMSTYTGIFTDQVLSVLKGEE-OH)

EC50 (LPL from bovine milk): 25 to 33 nM
Structure (SMILES): CC[C@H](C)[C@H](NC(=O)CNC(=O)[C@]1(C)CCCC=CCCCCCC[C@@](C)(NC(=O)[C@H](CO)NC(=O)[C@H](CCCCN)NC(=O)[C@H](CO)NC(=O)[C@H](Cc2ccc(O)cc2)NC(=O)[C@H](CC(C)C)NC(=O)[C@H](CC(=O)O)NC(=O)[C@H](CCCNC(=N)N)NC(=O)[C@H](CC(C)C)NC(=O)[C@H](CCCCN)NC(=O)[C@@H](N)CCC(=O)O)C(=O)N[C@@H](C)C(=O)N[C@@H](C)C(=O)N[C@@H](CCSC)C(=O)N[C@@H](CO)C(=O)N[C@@H]([C@@H](C)O)C(=O)N[C@@H](Cc2ccc(O)cc2)C(=O)N1)C(=O)N[C@@H](Cc1ccccc1)C(=O)N[C@H](C(=O)N[C@@H](CC(=O)O)C(=O)N[C@@H](CCC(N)=O)C(=O)N[C@H](C(=O)N[C@@H](CC(C)C)C(=O)N[C@@H](CO)C(=O)N[C@H](C(=O)N[C@@H](CC(C)C)C(=O)N[C@@H](CCCCN)C(=O)NCC(=O)N[C@@H](CCC(=O)O)C(=O)N[C@@H](CCC(=O)O)C(=O)O)C(C)C)C(C)C)[C@@H](C)O [P3] (H-EKLRDLYSKS[R8]AAMSTY[S5]GIFTDQVLSVLKGEE-OH; staple 11-18)

in vitro LPL activation, dose response (result in words) (LPL from bovine milk): just as active
Structure (SMILES): CC[C@H](C)[C@@H]1NC(=O)CNC(=O)[C@H]([C@@H](C)O)NC(=O)[C@H](Cc2ccc(O)cc2)NC(=O)[C@H]([C@@H](C)O)NC(=O)[C@](C)(NC(=O)[C@H](CCSC)NC(=O)[C@H](C)N)CCCCCCC=CCCC[C@@](C)(C(=O)N[C@@H](CC(=O)O)C(=O)N[C@@H](CCC(N)=O)C(=O)N[C@H](C(=O)N[C@@H](CC(C)C)C(=O)N[C@@H](CO)C(=O)N[C@H](C(=O)N[C@@H](CC(C)C)C(=O)N[C@@H](CCCCN)C(=O)NCC(=O)N[C@@H](CCC(=O)O)C(=O)N[C@@H](CCC(=O)O)C(=O)O)C(C)C)C(C)C)NC(=O)[C@H](Cc2ccccc2)NC1=O [P6] (H-AM[R8]TYTGIF[S5]DQVLSVLKGEE-OH; staple 3-10 (inferred); N-terminus and C-terminus assumed)

Structure (SMILES): CCCCCCCC(=O)NC(C)(C)C(=O)N[C@@H](CCCC)C(=O)N[C@]1(C)CCCCCCC=CCCCC2(CCCC=CCCCCCC[C@@](C)(C(=O)N[C@@H](CCCCN)C(=O)N(C)CC(=O)N[C@H](CCC(=O)O)C(=O)N[C@H](CCC(=O)O)C(=O)O)NC(=O)[C@H](C(C)C)NC(=O)[C@H](CO)NC(=O)[C@H](CC(C)C)NC(=O)[C@H](C(C)C)NC(=O)[C@H](CCC(N)=O)NC(=O)[C@H](CC(=O)O)NC2=O)NC(=O)[C@H](Cc2ccccc2)NC(=O)[C@H]([C@@H](C)CC)NC(=O)CNC(=O)[C@H]([C@@H](C)O)NC(=O)[C@H](Cc2ccc(O)cc2)NC(=O)[C@H]([C@@H](C)O)NC1=O (some centres unmarked) [SP2a]
in vitro LPL activation, dose response (result in words) (LPL from bovine milk): more potent than SP1 and D6PV
secondary structure by CD (result in words) [2]: highly helical
intact full-length peptide after trypsin incubation (trypsin): highly resistant to proteolysis
intact full-length peptide after Proteinase K incubation (Proteinase K): highly resistant to proteolysis
intact full-length peptide after pepsin incubation (Pepsin): highly resistant to proteolysis
plasma triglycerides, 1-hour time point (Apoc2^h/h mice; 1 h, compared with D6PV): possibly less effective
plasma triglycerides, 3-hour time point (Apoc2^h/h mice; 3 h): lowered plasma triglycerides like D6PV
